Measured values reported in ChEMBL document CHEMBL5291721, “A preclinical secondary pharmacology resource illuminates target-adverse drug reaction associations of marketed drugs” (Nat Commun, 2023).

What was measured:
Progesterone receptor = target: T1, Progesterone receptor (Homo sapiens, UniProt P06401)
T1 sequence (P06401 whole entry): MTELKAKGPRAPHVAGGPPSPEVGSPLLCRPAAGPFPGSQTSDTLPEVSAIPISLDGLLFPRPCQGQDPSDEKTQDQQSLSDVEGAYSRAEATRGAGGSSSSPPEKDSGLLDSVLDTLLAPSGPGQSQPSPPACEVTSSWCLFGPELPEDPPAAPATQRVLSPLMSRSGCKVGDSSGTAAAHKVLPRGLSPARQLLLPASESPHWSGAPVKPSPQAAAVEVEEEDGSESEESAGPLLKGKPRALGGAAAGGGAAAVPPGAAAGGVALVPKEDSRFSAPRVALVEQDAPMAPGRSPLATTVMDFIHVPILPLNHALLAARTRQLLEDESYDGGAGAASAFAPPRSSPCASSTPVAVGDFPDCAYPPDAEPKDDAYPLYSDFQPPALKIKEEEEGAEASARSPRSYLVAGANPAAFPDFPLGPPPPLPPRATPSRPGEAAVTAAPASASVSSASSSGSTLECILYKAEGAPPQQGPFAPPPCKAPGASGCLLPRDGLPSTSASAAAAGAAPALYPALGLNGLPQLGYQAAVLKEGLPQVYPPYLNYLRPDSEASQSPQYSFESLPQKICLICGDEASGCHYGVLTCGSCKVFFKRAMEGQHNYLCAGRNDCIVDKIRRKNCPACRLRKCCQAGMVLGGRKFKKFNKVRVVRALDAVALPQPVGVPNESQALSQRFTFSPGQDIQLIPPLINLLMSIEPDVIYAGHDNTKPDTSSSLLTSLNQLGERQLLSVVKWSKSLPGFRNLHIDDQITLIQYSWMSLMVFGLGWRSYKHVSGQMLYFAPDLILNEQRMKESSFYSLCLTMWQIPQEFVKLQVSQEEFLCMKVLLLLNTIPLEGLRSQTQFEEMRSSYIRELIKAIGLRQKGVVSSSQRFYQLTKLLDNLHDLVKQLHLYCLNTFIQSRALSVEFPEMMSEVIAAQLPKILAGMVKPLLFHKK

Estrogen receptor beta = Estrogen receptor beta (Homo sapiens, UniProt Q92731)
Estrogen receptor beta, sequence (Q92731 whole entry): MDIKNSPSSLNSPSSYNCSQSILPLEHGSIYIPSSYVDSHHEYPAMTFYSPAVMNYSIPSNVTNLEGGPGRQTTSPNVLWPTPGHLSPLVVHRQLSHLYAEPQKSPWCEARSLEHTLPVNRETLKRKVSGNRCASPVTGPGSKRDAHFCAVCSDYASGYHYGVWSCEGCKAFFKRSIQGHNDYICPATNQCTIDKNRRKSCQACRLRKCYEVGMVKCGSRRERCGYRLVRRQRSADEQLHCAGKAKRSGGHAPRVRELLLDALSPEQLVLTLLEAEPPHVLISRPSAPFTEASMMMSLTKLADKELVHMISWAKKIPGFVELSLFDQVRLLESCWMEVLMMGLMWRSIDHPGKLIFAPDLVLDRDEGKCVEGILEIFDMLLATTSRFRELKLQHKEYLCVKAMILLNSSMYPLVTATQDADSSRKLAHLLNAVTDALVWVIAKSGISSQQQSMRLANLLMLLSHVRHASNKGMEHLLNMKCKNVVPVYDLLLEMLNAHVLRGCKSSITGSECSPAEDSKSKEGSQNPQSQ

[1] = target: T2, Alpha-2A adrenergic receptor (Homo sapiens, UniProt P08913)
T2 sequence (P08913 whole entry): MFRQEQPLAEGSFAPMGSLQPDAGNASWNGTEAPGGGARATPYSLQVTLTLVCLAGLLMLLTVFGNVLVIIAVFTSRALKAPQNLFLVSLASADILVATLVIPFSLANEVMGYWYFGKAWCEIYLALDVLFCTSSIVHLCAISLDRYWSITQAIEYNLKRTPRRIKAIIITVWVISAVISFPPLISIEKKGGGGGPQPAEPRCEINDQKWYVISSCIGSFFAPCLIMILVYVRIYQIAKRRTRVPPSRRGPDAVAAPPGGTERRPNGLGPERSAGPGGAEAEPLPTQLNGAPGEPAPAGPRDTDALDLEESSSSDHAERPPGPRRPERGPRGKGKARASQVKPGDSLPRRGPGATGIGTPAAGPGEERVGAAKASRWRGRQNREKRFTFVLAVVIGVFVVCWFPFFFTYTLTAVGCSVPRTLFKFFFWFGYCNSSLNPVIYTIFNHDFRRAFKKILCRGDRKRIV

Substance-P receptor = Substance-P receptor (Homo sapiens, UniProt P25103)
Substance-P receptor, sequence (P25103 whole entry): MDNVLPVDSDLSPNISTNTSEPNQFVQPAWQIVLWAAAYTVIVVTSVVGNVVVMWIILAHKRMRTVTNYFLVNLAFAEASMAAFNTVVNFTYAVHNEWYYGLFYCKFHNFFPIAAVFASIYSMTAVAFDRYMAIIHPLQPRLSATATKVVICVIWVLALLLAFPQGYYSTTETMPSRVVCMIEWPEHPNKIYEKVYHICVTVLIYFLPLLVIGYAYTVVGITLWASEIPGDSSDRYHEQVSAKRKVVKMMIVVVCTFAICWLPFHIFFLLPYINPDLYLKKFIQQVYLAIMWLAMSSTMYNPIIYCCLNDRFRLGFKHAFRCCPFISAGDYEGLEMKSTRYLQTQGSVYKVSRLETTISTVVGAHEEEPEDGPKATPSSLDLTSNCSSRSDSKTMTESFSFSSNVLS

[2] = target: T3, Gastric inhibitory polypeptide receptor (Homo sapiens, UniProt P48546)
T3 sequence (P48546 whole entry): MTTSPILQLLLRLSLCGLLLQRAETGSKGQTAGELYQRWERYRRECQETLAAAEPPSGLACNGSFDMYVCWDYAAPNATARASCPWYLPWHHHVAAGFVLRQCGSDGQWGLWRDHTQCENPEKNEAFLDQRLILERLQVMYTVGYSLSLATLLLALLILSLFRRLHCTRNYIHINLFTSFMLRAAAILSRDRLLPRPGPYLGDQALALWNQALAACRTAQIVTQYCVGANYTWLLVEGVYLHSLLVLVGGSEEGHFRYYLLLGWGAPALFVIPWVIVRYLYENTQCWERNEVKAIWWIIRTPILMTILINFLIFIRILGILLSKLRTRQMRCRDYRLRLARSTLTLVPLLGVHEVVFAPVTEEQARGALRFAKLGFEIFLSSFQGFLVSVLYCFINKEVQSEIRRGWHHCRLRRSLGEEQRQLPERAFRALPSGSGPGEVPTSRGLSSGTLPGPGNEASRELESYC

[3] = target: Gamma-aminobutyric acid receptor subunit alpha-1/alpha-2/beta-2/gamma-2 (Homo sapiens, UniProt P14867+P18507+P47869+P47870); type: functional, cell-based
Gamma-aminobutyric acid receptor subunit alpha-1/alpha-2/beta-2/gamma-2, sequence (P14867 whole entry): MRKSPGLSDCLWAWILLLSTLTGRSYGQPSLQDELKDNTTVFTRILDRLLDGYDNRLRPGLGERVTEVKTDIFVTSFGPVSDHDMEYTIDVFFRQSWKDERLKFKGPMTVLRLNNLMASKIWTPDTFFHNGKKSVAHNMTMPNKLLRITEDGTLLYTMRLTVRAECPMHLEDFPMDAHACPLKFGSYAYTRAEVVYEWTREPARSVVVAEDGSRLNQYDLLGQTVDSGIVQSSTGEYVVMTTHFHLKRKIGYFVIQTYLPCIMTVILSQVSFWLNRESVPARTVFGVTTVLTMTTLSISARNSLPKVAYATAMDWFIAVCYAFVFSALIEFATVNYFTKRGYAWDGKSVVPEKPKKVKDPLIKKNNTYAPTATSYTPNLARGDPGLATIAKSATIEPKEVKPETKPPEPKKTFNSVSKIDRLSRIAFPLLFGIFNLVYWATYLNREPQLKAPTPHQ
Gamma-aminobutyric acid receptor subunit alpha-1/alpha-2/beta-2/gamma-2, sequence (P47870 whole entry): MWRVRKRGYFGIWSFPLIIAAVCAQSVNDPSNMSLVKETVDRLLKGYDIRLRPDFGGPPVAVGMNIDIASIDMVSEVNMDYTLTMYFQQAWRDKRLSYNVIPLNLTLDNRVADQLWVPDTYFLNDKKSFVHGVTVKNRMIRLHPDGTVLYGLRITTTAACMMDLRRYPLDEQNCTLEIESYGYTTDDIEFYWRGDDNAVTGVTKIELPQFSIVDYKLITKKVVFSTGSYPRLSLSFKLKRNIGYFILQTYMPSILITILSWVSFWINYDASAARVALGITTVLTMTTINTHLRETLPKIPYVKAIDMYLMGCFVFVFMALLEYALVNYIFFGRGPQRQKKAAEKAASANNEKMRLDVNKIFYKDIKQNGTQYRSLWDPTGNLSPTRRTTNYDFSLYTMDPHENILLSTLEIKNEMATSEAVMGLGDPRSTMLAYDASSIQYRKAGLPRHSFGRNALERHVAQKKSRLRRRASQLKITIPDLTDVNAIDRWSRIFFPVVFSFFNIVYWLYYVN
Gamma-aminobutyric acid receptor subunit alpha-1/alpha-2/beta-2/gamma-2, sequence (P18507 whole entry): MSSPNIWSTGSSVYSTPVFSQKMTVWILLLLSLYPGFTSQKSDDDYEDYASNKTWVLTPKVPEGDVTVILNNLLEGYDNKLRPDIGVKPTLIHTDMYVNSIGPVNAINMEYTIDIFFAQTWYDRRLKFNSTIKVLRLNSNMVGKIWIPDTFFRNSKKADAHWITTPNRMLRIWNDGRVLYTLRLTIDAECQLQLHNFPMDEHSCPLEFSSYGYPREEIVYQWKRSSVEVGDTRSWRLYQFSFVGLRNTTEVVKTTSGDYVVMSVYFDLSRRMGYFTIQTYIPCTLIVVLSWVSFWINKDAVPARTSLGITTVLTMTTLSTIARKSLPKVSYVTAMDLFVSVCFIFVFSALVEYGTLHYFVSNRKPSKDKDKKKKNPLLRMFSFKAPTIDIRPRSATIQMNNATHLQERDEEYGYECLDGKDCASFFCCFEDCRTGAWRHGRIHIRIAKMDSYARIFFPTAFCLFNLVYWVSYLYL
Gamma-aminobutyric acid receptor subunit alpha-1/alpha-2/beta-2/gamma-2, sequence (P47869 whole entry): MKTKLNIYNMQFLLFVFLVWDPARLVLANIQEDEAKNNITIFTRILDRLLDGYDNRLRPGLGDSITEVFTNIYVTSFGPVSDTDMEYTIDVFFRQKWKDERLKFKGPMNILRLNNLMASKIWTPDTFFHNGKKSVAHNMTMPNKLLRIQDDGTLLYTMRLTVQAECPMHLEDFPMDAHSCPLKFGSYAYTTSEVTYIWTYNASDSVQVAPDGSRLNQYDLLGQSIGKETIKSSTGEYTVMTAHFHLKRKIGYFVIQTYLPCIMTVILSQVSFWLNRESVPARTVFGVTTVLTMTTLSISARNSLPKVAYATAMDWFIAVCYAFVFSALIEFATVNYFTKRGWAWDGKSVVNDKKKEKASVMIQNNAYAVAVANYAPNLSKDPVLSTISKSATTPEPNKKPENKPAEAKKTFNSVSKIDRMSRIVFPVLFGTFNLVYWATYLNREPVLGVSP

[4] = target: Gamma-aminobutyric acid receptor subunit alpha-1 (Rattus norvegicus, UniProt P62813)
Gamma-aminobutyric acid receptor subunit alpha-1, sequence (P62813 whole entry): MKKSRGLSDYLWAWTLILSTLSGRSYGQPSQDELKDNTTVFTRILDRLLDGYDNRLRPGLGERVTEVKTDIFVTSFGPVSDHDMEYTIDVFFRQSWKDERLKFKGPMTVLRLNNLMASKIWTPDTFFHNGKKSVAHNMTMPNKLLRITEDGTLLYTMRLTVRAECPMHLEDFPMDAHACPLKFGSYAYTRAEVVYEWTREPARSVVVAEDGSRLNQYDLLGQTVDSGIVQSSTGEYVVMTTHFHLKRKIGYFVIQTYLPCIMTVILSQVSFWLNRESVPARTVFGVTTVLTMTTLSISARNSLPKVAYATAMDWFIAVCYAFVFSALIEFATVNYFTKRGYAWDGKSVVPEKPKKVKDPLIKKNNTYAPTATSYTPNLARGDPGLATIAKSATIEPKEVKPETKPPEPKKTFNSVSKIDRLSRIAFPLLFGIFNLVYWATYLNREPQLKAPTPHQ

D(1A) dopamine receptor = D(1A) dopamine receptor (Homo sapiens, UniProt P21728); type: functional, cell-based
D(1A) dopamine receptor, sequence (P21728 whole entry): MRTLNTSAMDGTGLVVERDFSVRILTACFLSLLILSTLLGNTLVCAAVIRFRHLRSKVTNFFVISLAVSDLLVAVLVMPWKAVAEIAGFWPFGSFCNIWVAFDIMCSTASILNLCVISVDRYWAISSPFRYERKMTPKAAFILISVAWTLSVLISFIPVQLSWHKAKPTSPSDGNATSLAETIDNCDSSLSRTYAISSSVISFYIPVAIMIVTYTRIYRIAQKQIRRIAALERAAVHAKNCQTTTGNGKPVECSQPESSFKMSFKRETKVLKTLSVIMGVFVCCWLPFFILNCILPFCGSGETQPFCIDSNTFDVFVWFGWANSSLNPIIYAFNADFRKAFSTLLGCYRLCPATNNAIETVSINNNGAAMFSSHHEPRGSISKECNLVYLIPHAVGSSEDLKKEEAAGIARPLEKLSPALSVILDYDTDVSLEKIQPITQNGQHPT
Also: assay procedure not described here.

Row | AC50 [1] [µM] | AC50 (Substance-P receptor) [µM] | AC50 [2] [µM] | Compound | AC50 (Progesterone receptor) [µM] | AC50 [4] [µM] | further results
1 | > 10 | > 10 | > 30 | CCOC(=O)[C@H](CCc1ccccc1)N[C@@H](C)C(=O)N1[C@H](C(=O)O)C[C@@H]2CCC[C@@H]21 | > 30 |  | AC50 (Estrogen receptor beta): > 30 µM
2 |  |  |  | Nc1nc(NC2CC2)c2ncn([C@H]3C=C[C@@H](CO)C3)c2n1 [ABACAVIR] |  |  | AC50 [3]: > 30 µM
3 |  |  |  | CC(=O)Nc1ccc(O)cc1 [ACETAMINOPHEN] |  |  | AC50 [3]: > 30 µM
4 |  |  |  | CCCSc1ccc2nc(NC(=O)OC)[nH]c2c1 [ALBENDAZOLE] | > 30 |  | 
5 |  |  |  | CCc1oc2ccccc2c1C(=O)c1cc(I)c(O)c(I)c1 [BENZIODARONE] |  | 17.1 | 
6 |  |  |  | CN(C)CCn1nnnc1SCC1=C(C(=O)O)N2C(=O)[C@@H](NC(=O)Cc3csc(N)n3)[C@H]2SC1 [CEFOTIAM] |  | > 30 | 
7 | > 10 | > 10 | > 30 | Cc1ccc(-c2cc(C(F)(F)F)nn2-c2ccc(S(N)(=O)=O)cc2)cc1 [CELECOXIB] | > 30 |  | 
8 | > 10 | > 10 | > 30 | CC1=C(C(=O)O)N2C(=O)[C@@H](NC(=O)[C@H](N)c3ccccc3)[C@H]2SC1 [CEPHALEXIN ANHYDROUS] | > 30 |  | AC50 (Estrogen receptor beta): > 30 µM
9 |  |  |  | COCc1c(C(C)C)nc(C(C)C)c(/C=C/[C@@H](O)C[C@@H](O)CC(=O)O)c1-c1ccc(F)cc1 [CERIVASTATIN] |  | > 30 | 
10 | > 10 | > 10 | > 30 | CN(C)CCC(c1ccc(Cl)cc1)c1ccccn1 (stereo not drawn) [CHLORPHENIRAMINE] | > 30 |  | 
11 |  |  |  | C[N+](C)(C)CCO [CHOLINE] |  | > 30 | 
12 |  |  |  | CN(C)[C@@H](c1cccc(O)c1)[C@H]1CCCC[C@H]1O [CIRAMADOL] |  | > 30 | 
13 |  |  |  | CN(C)CC(c1ccc(O)cc1)C1(O)CCCCC1 (stereo not drawn) [DESVENLAFAXINE] |  | > 30 | 
14 |  |  |  | O=C(Cc1ccc(-c2ccccc2)cc1)Nc1ccccn1 [DIFENPIRAMIDE] |  | > 30 | AC50 [3]: > 30 µM
15 |  |  |  | Cc1cc(C#N)cc(C)c1Oc1nc(Nc2ccc(C#N)cc2)nc(N)c1Br [ETRAVIRINE] |  | > 30 | 
16 |  |  |  | O=C(OCC(O)CO)c1ccccc1Nc1ccnc2cc(Cl)ccc12 (stereo not drawn) [GLAFENINE] |  |  | AC50 (D(1A) dopamine receptor): > 30 µM; AC50 [3]: > 30 µM
17 |  |  |  | C[N+]1(C)CCC(OC(=O)C(O)(c2ccccc2)C2CCCC2)C1 (stereo not drawn) [GLYCOPYRRONIUM BROMIDE] | > 30 |  | 
18 | > 10 | > 10 | > 30 | C[C@]12CCC(=O)C=C1CC[C@@H]1[C@@H]2[C@@H](O)C[C@@]2(C)[C@H]1CC[C@]2(O)C(=O)CO [HYDROCORTISONE] | 7.61 |  | AC50 (Estrogen receptor beta): > 30 µM
19 |  |  |  | CC(C)Nc1ncccn1 [ISAXONINE] |  | > 30 | 
20 | > 10 | 1.54 | > 30 | CCC(C)n1ncn(-c2ccc(N3CCN(c4ccc(OCC5COC(Cn6cncn6)(c6ccc(Cl)cc6Cl)O5)cc4)CC3)cc2)c1=O (stereo not drawn) [ITRACONAZOLE] | > 30 |  | AC50 (Estrogen receptor beta): > 30 µM
21 |  |  |  | N[C@@H](C(=O)N[C@@H]1C(=O)N2C(C(=O)O)=C(Cl)CC[C@H]12)c1ccccc1 [LORACARBEF ANHYDROUS] |  | > 30 | 
22 |  |  |  | CN1C(C(=O)Nc2ccccn2)=C(O)c2sc(Cl)cc2S1(=O)=O [LORNOXICAM] | > 30 |  | 
23 |  |  |  | CC1(C)NC(=O)N(c2ccc([N+](=O)[O-])c(C(F)(F)F)c2)C1=O [NILUTAMIDE] |  | > 30 | 
24 |  |  |  | CN(C)S(=O)(=O)c1ccc2c(c1)N(CCCN1CCC(CCO)CC1)c1ccccc1S2 [PIPOTIAZINE] |  | > 30 | 
25 |  |  |  | CCC(=O)NCC[C@@H]1CCc2ccc3c(c21)CCO3 [RAMELTEON] |  | > 30 | 
26 | 13 |  |  | COc1ccccc1OCC(O)CN1CCN(CC(=O)Nc2c(C)cccc2C)CC1 (stereo not drawn) [RANOLAZINE] |  |  | 
27 |  | > 10 | > 30 | Clc1ccc2nsnc2c1NC1=NCCN1 [TIZANIDINE] | > 30 |  | AC50 (Estrogen receptor beta): > 30 µM
28 |  |  |  | CCOC(=O)[C@H](CCc1ccccc1)N[C@@H](C)C(=O)N1[C@H](C(=O)O)C[C@H]2CCCC[C@@H]21 [TRANDOLAPRIL] |  | > 30 | 

Row | Compound | AC50 [1] [µM] | AC50 (Substance-P receptor) [µM] | AC50 [2] [µM] | AC50 (Progesterone receptor) [µM] | AC50 [4] [µM] | further results
29 | CC[C@H]1OC(=O)[C@H](C)[C@@H](O[C@H]2C[C@@](C)(OC)[C@@H](O)[C@H](C)O2)[C@H](C)[C@@H](O[C@@H]2O[C@H](C)C[C@H](N(C)C)[C@H]2O)[C@](C)(O)C[C@@H](C)CN(C)[C@H](C)[C@@H](O)[C@]1(C)O [AZITHROMYCIN] | > 10 | > 10 | > 30 | > 30 | > 30 | AC50 (Estrogen receptor beta): > 30 µM
30 | CS(=O)(=O)c1ccc(C2=C(c3ccccc3)C(=O)OC2)cc1 [ROFECOXIB] | > 10 | > 10 | > 30 | > 30 |  | AC50 (Estrogen receptor beta): > 30 µM
31 | CO[C@H]1C[C@@H]2CC[C@@H](C)[C@@](O)(O2)C(=O)C(=O)N2CCCC[C@H]2C(=O)O[C@H]([C@H](C)C[C@@H]2CC[C@@H](O)[C@H](OC)C2)CC(=O)[C@H](C)/C=C(\C)[C@@H](O)[C@@H](OC)C(=O)[C@H](C)C[C@H](C)/C=C/C=C/C=C/1C [SIROLIMUS] |  |  | > 30 | > 30 | > 30 | AC50 (Estrogen receptor beta): > 30 µM
32 | Cc1cn([C@H]2C=C[C@@H](CO)O2)c(=O)[nH]c1=O [STAVUDINE] | > 10 | > 10 | > 30 | > 30 | > 30 | AC50 (Estrogen receptor beta): > 30 µM
33 | Cn1nnc2c(C(N)=O)ncn2c1=O [TEMOZOLOMIDE] | > 10 | > 10 | > 30 | > 30 |  | AC50 (Estrogen receptor beta): > 30 µM; AC50 (D(1A) dopamine receptor): > 30 µM; AC50 [3]: > 30 µM
34 | Cc1cn([C@H]2C[C@H](N=[N+]=[N-])[C@@H](CO)O2)c(=O)[nH]c1=O [ZIDOVUDINE] | > 10 | > 10 | > 30 | > 30 | > 30 | 
